{"source": "patent US8740762B2", "about": "“Specific inhibition of cPLA2 enhances the efficacy of radiotherapy” (Vanderbilt University, priority 2007, dated 2014)", "origin": "cited, not measured here", "key": {"pro-survival kinases": {"tested_on": "pro-survival kinases", "conditions": "20 μM"}}}
{"substance": "lysophosphatidylcholine [LPC]", "values": [{"measurement": "cell death", "setting": "HUVEC; concentrations higher than 25 μM", "result": "promote cell death"}, {"measurement": "proliferation of HUVEC", "setting": "HUVEC; up to 25 μM", "result": "increase proliferation"}, {"measurement": "activation of pro-survival kinases", "setting": "pro-survival kinases", "result": "activated the same pro-survival kinases"}]}
